These results are taken from patent US11311512B2, “Lymph directing prodrugs” (priority 2014, dated 2022).

Bounds are passed on as bounds.

Data set [1] in a line: Pharmacokinetic study in rats, testosterone plasma concentrations after oral gavage. Conditions: testosterone in plasma, oral gavage. As to the method:
In order to assess the oral bioavailability of the compounds of the invention, pharmacokinetic studies were conducted in rats and dogs. […] The rats were then allowed to regain consciousness and fasted overnight prior to the commencement of experiments with free access to water. […] The oral formulation of Compound 2 contained 3 mg of the compound, 20 mg oleic acid and 12.5 mg Tween 80 dispersed in 1 mL PBS. Blood samples were collected from the carotid artery cannula from 5 min prior to administration up to 24 h post-dosing and centrifuged at 5000 rpm for 5 min to separate plasma. […] Plasma samples were stored at −80° C. prior to assay by HPLC-MS-MS. In this case samples were assayed for free drug (i.e. non-glyceride associated drug) and were not hydrolysed prior to assay (as was the case with the lymph samples).
FIG. 12 illustrates dose-normalized testosterone plasma concentrations following oral gavage of formulations to conscious, carotid artery cannulated female SD rats. Formulations contained 1 mg of TU, or 2 mg of compounds of the invention containing testosterone dispersed in 40 mg oleic acid, 25 mg Tween 80 and 2 ml PBS. Doses are normalized to a 2 mg/kg equivalent dose of testosterone. Data are shown as mean±SEM for all groups (n=4 or 3 for each group). The embedded figure is the plot of the dose-normalized plasma AUC0-24h (nmol×h/L) of testosterone in the form of a bar graph.

Data set [2] can be described thus: Pharmacokinetic study in greyhound dogs, testosterone plasma concentrations after oral administration. The class given is in vivo. Conditions: fed state. As to the method:
For the dog studies, female greyhound dogs were held in a large animal research facility for at least 5 days prior to the commencement of studies. The dogs were allowed to acclimatise for at least 4 days prior to commencing the study. The dogs were fasted for 12 h up to 30 min prior to drug administration. For the fed state studies (n=4 for TU or Compound 13), dogs received 680 g of standard commercial dog food containing 5% fat min prior to drug administration. In the fasted study (n=1 for Compound 13), the dog remained fasted until after 4 h post-dose. Water was available ad libitum throughout the study for all dogs. On the study day, a 20 gauge intravenous catheter was inserted into a cephalic vein to allow blood sampling. The dogs were free to move around (not restrained) after cannulation. For the fed state studies, Andriol Testocaps (the commercial TU product) or Compound 13 was given to the dogs. Andriol Testocaps were supplied by Merck Sharp & Dohme (Australia) Pty Limited and were formulated as soft gelatin capsule containing a 12.0% (w/w) solution of TU in lauroglycol FCC/castor oil [40:60% (w/w)] with the individual capsule composition being 40 mg of TU, lauroglycol FCC, castor oil, gelatin, glycerol, and sunset yellow (E110). Compound 13 was prepared in a long-chain lipid based self-emulsifying drug delivery system (SEDDS) that consisted of 30.5% w/w soybean oil, 30.5% w/w Maisine 35-1, 31.6% w/w Cremophor EL and 7.4% w/w ethanol. Formulations were filled into hard gelatin capsules. Two capsules of Andriol Testocaps containing 80 mg TU or two capsules of Compound 13 containing a total dose of 90 mg Compound 13 dissolved in 2 g of the SEDDS formulation were administrated to the fed greyhound dog by placing the capsules as far posterior to the pharynx as possible, closing the mouth and rubbing the throat to stimulate swallowing. Subsequently 50 mL of water was administered orally via a syringe. Two capsules of Compound 13 formulation were also administrated to the fasted dogs for fasted state studies. After oral administration, blood samples (approx. 3 mL each) were taken via the cephalic vein cannula from 5 min prior to administration up to 10 hours post-dosing. The patency of the catheters was maintained by flushing with a small volume of heparinised saline (1-2 IU/mL) after each blood sample was withdrawn. Blood samples at 24 h were taken by venepuncture. Plasma was separated by centrifugation and aliquots of each plasma sample were transferred into eppendorf tubes and store at −80° C. prior to analysis by LC-MS-MS.

For data set [3] the following is noted: cited from earlier work.
The mark [4] stands for this setting: conscious carotid artery cannulated SD female rats, normalized to 2 mg/kg equivalent testosterone dose.

As usually defined, the Tmax is the time at which the peak concentration occurs. Usually Cmax stands for the maximum level reached in the sampled fluid or tissue. Turning to `CCCCCCCCCCC(=O)O[C@H]1CC[C@H]2[C@@H]3CCC4=CC(=O)CC[C@]4(C)[C@H]3CC[C@]12C` [TU, testosterone undecanoate, reference compound], where the note is “anaesthetised, mesenteric lymph-duct cannulated female SD rats, intraduodenal infusion 0-2 h, cumulative over 8 h”, the “Transport of total TST derivatives in lymph (% of dose)” value was 1.9 ± 0.3 % of dose. Under “lymphatic transport of total TST derivatives, female SD rats, intraduodenal infusion”, the “Fold increase (compared with control group dosed with TU)” value was 1.0 fold. Moreover, the “AUC0-24 h fold increase compared with TU group” value in data set [1] (SD female rats, dose-normalized) is listed as 1.0 fold; in data set [2] (greyhound dogs, dose-normalized), 1 fold. Besides, the Tmax in data set [1] (conscious carotid artery cannulated SD female rats) is reported as 1.5 ± 0.0 h; in data set [2] (oral capsules, greyhound dogs), 1.8 ± 0.1 h. Moreover, the AUC0-24 h in data set [1] (setting [4]) amounted to 0.0068 ± 0.0004 µM·h; in data set [2] (oral capsules, greyhound dogs, normalized to 2 mg/kg equivalent testosterone dose), 0.1411 ± 0.0221 µM·h. Further, the Cmax in data set [1] (setting [4]) stood at 5.6 ± 0.5 nM; in data set [2] (oral capsules, conscious greyhound dogs, normalized to 2 mg/kg equivalent testosterone dose, TU as Andriol Testocaps, Compound 13 in SEDDS) it was 75.4 ± 12.8 nM. Also, the “bioavailability of testosterone after oral administration of the undecanoate ester” value in data set [3] is less than 5%.
